Bridge positions count the residues as written; N and C are the ends. Ends that are not written are not given here.

Here are results for nine sequences from patent publication US20110182922A1, “PEPTIDES OF IL1 BETA AND TNF ALPHA AND METHOD OF TREATMENT USING SAME” (VAX CONSULTING, priority 2004, published 2011).

What all share (type): in vivo
Assay [1] relates to TNFα-dependent septic shock in mice. Kind of assay: model of endotoxinic shock (LPS with Galactosamine) after preimmunization. Conditions: Balb/c mice preimmunized with KLH-coupled peptide, shock on day D50 by LPS with Galactosamine; control KLH alone; p=0.008. How it is done:
4 murine TNFα peptides coupled to the KLH carrier protein, including the cyclized peptide CVSRFAISYQEKVNLLSC (SEQ ID NO:15) called TNFα-6, were tested in a model of endotoxinic shock. For this purpose, Balb/c mice were preimmunized against these peptides on days D0, […], and D40. On day D50, the mice were subjected to shock, i.e. they were injected with LPS with Galactosamine. A control was carried out on mice immunized against KLH alone.
It is noted that all the mice died after two days, except for the group immunized against the TNFα-6 peptide where the mice were protected. The protection conferred by the immunization was very significant (p=0.008).

The test system of another assay is native mIL1β cytokine. The assay is described as follows: ELISA test of serum antibodies against native mIL1β after immunization. More on the design: unit not given here. Conditions: ELISA on serum day D50; groups of 4 mice, 20 ug peptide coupled to KLH, boosters D20 and D40. How it is done: (§1) 6 groups of 4 mice were immunized against 20 ug of the murine IL1β peptides IRQLHYRLRDEQQKSL (group 1) (SEQ ID NO:11), SFVQGEPSNDKIP (group 2) (SEQ ID NO:12), QYPKKKMEKRFVFNKIEV (group 3) (SEQ ID NO:13), IIDFTMESVSS (group 4) (SEQ ID NO:14), and 20 ug of the murine TNFα peptide KYLDFAESGQVY (group 5) (SEQ ID NO:6) all coupled to KLH. Group 6 corresponds to mice immunized by KLH alone. A booster was administered on days D20 and D40. On day D50 the mice were sacrificed and the antibodies directed against the native mTNFα cytokine and the native mIL1β cytokine in the serums were measured by an ELISA test.
Background: An ELISA detects its analyte on a solid surface through an enzyme-linked reagent.

For another assay, the system named is native mTNFα cytokine. The assay is described as follows: ELISA test of serum antibodies against native mTNFα after immunization. Also on record: unit not given here. The conditions noted are these: ELISA on serum day D50; groups of 4 mice, 20 ug peptide coupled to KLH, boosters D20 and D40. On the procedure: as §1
Assay [2] has as its system collagen arthritis induced in mice. Kind of assay: model of collagen arthritis after preimmunization. The conditions noted are these: DBA1 mice preimmunized with KLH-coupled peptide, collagen in Freund's adjuvant D80 and D95, scored D100-D160; control KLH alone; p=0.0003, ANOVA test. On the procedure:
3 murine IL1β peptides coupled to the KLH protein, including the cyclized IL1-6 peptide of sequence YCYISTSQAEHKPVFLGC (SEQ ID NO:16), were tested in a model of collagen arthritis. For this purpose, DBA1 mice were preimmunized against these peptides on days D0, D20, D40, […]. On day D80 the mice were immunized against collagen in Freund's adjuvant, and similarly on day D95. The development of arthritis was monitored between day D100 and day D160: twice weekly, the mice were examined and a score was attributed to them as a function of the state of inflammation of their joints (0=no inflammation, 1=slight inflammation, 2=average inflammation, 3=strong inflammation).

Take “CVSRFAISYQEKVNLLSC (disulfide 1-18 (inferred)) [TNFα-6, cyclized murine TNFα peptide]”: the “survival of mice subjected to septic shock (protection)” value in assay [1] is given as “protected”. In the case of “IIDFTMESVSS [Group 4, murine IL1β peptide 142-152]”, in the assay with native mIL1β cytokine, the “Anti-IL1β response Average” value is 0.8. For the same sequence, the “Anti-TNFα response Average” value with native mTNFα cytokine is listed as 0.12.

With “IRQLHYRLRDEQQKSL [Group 1, murine IL1β peptide 3-18]”, the “Anti-IL1β response Average” value in the assay on native mIL1β cytokine came to 1.5. The “Anti-TNFα response Average” value with native mTNFα cytokine is on record as 0.13.

On to “KYLDFAESGQVY [Group 5, murine TNFα peptide 140-150]”, for which the “Anti-IL1β response Average” value in the assay on native mIL1β cytokine is recorded as 0.31. The “Anti-TNFα response Average” value in the assay with native mTNFα cytokine stood at 1.3. On the same counts, the results for “QYPKKKMEKRFVFNKIEV [Group 3, murine IL1β peptide 89-106]” are 1.6 and 0.18. For “SFVQGEPSNDKIP [Group 2, murine IL1β peptide 45-57]” the same measures were 1.9 and 0.15. On to “VSRFAISYQEKVNLLS [SEQ ID NO:1, peptide area 80-95 of the murine TNFα cytokine]”, for which, in assay [1], the “survival of mice subjected to septic shock (protection)” value is “capable of blocking TNFα-dependent septic shock in mice”. For the sequence “YCYISTSQAEHKPVFLGC (disulfide 2-18 (inferred); also: coupled to KLH carrier protein) [IL1β-6, cyclized murine IL1β peptide]”, in assay [2], the “clinical score of joint inflammation (protection with respect to control)” value is “strong protection level”.

Turning to “YISTSQAEHKPVFLG [SEQ ID NO:3, peptide area 121-135 of the murine IL1β cytokine]”, in assay [2], the “clinical score of joint inflammation (protection with respect to control)” value is reported as “capable of blocking collagen arthritis induced in mice”.
